Assay results taken from PMC11680164 (Viruses, 2024).

Legend:
[1] = Pharmacokinetics (plasma and lung) after single oral dose in mice; format: in vivo, Swiss Webster mice; settings: 60 mg/kg p.o. single dose
[2] = cited from earlier work
[3] = Swiss Webster, mouse, po, plasma

COC(=O)N[C@H](C(=O)N1CCC[C@H]1c1nc(-c2ccc(-c3ccc(-c4c[nH]c([C@@H]5CCCN5C(=O)[C@@H](NC(=O)OC)C(C)C)n4)cc3)cc2)c[nH]1)C(C)C [daclatasvir]
AUC in plasma relative to lungs [1]: ~5.9 fold | Cmax ([1]; Swiss Webster, mouse, po, lung): 6190 ng/g | Tmax ([1]; Swiss Webster, mouse, po, lung): 0.67 h | half-life ([1]; Swiss Webster, mouse, po, lung): 14.7 h | AUC(0-inf) [1, 3]: 103 µg·h/mL | AUC(0-t) [1, 3]: 101 µg·h/mL | Cmax [1, 3]: 22200 ng/mL | Tmax [1, 3]: 1 h | half-life [1, 3]: 2.25 h | AUClast ([1]; lung): 16,932 h.ng/g | AUC∞ ([1]; lung): 19,123 h.ng/g | Ct (last concentration observed above the limit of quantification) ([1]; lung): 103.46 ng/g | Tlast ([1]; lung): 16.00 h | λ (apparent elimination constant) ([1]; lung): 0.0472 h*^−1 | Ct (last concentration observed above the limit of quantification) ([1]; plasma): 353.84 ng/mL | Tlast ([1]; plasma): 16.00 h | λ (apparent elimination constant) ([1]; plasma): 0.308 h*^−1 | no-observable-effect level (NOEL) ([2]; nonhuman primates treated daily for 4–9 months): 15 mg/kg | tolerated dose ([2]; nonhuman primates): 15 mg/kg
